Laboratory results from the supplement of paper PMC10307832.

How the values were obtained:
Experiment in all cases: relative viability (nuclei count vs DMSO), 5 days (fraction); higher = more cells survive
Ruxolitinib + Bortezomib = compound: N#CC[C@H](C1CCCC1)n1cc(-c2ncnc3[nH]ccc23)cn1 [Ruxolitinib] + CC(C)C[C@H](NC(=O)[C@H](Cc1ccccc1)NC(=O)c1cnccn1)B(O)O [Bortezomib] (partner 0.002 µM)
Procedure, shortened: (§1)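 Lung cancer cell lines in 1536-well plates were dosed by pin tool the day after seeding, either with one drug alone or with a fixed anchor-drug dose plus five library-drug doses (not always all listed) in √10 steps. After 5 days, cells were fixed and their nuclei stained in one step (final 0.05% Triton X-100, 1% formaldehyde, 1 ug/ml Hoechst), then counted on 4× images. Relative viability is the nuclei count in treated wells divided by that in vehicle wells. Values are medians of duplicate plates.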

VE-821 + Decitabine = compound: CS(=O)(=O)c1ccc(-c2cnc(N)c(C(=O)Nc3ccccc3)n2)cc1 [VE-821] + Nc1ncn([C@H]2C[C@H](O)[C@@H](CO)O2)c(=O)n1 [Decitabine] (partner 2 µM)
Procedure, shortened: as §1

VE-821 + Crizotinib = compound: CS(=O)(=O)c1ccc(-c2cnc(N)c(C(=O)Nc3ccccc3)n2)cc1 [VE-821] + C[C@@H](Oc1cc(-c2cnn(C3CCNCC3)c2)cnc1N)c1c(Cl)ccc(F)c1Cl [Crizotinib] (partner 1 µM)
Procedure, shortened: as §1

VE-821 + Linsitinib = compound: CS(=O)(=O)c1ccc(-c2cnc(N)c(C(=O)Nc3ccccc3)n2)cc1 [VE-821] + C[C@]1(O)C[C@@H](c2nc(-c3ccc4ccc(-c5ccccc5)nc4c3)c3c(N)nccn32)C1 [Linsitinib] (partner 1 µM)
Procedure, shortened: as §1

Cell Line	relative viability (Ruxolitinib + Bortezomib; first compound 0.08 µM)	relative viability (Ruxolitinib + Bortezomib; first compound 0.253 µM)	relative viability (Ruxolitinib + Bortezomib; first compound 0.8 µM)	relative viability (Ruxolitinib + Bortezomib; first compound 2.53 µM)	relative viability (Ruxolitinib + Bortezomib; first compound 8 µM)	relative viability (VE-821 + Decitabine; first compound 0.08 µM)	relative viability (VE-821 + Decitabine; first compound 0.253 µM)	relative viability (VE-821 + Decitabine; first compound 0.8 µM)	relative viability (VE-821 + Decitabine; first compound 2.53 µM)	relative viability (VE-821 + Decitabine; first compound 8 µM)	relative viability (VE-821 + Crizotinib; first compound 0.08 µM)	relative viability (VE-821 + Crizotinib; first compound 0.253 µM)	relative viability (VE-821 + Crizotinib; first compound 0.8 µM)	relative viability (VE-821 + Crizotinib; first compound 2.53 µM)	relative viability (VE-821 + Crizotinib; first compound 8 µM)	relative viability (VE-821 + Linsitinib; first compound 0.08 µM)	relative viability (VE-821 + Linsitinib; first compound 0.253 µM)	relative viability (VE-821 + Linsitinib; first compound 0.8 µM)	relative viability (VE-821 + Linsitinib; first compound 2.53 µM)	relative viability (VE-821 + Linsitinib; first compound 8 µM)
HARA	1.29	1.06	1.11	0.534	1.09	0.551	0.636	0.613	0.615	0.516	1.36	1.07	1.06	1.07	0.903	1.03	1.02	0.931	0.972	0.702
HCC-15	1.08	1.05	1.01	0.99	0.926	0.74	0.726	0.69	0.954	0.766	0.989	0.817	0.906	0.982	0.854	1.01	0.816	0.954	0.961	0.889
HCC-44	0.888	0.944	0.914	0.933	0.689	0.9	0.963	1.05	1.04	1.04	0.846	0.779	0.847	1.03	0.923	0.72	0.685	0.485	0.81	0.769
IA-LM	0.998	0.931	0.971	0.917	0.61						1.04	0.618	0.875	1.14	0.616	0.836	0.54	0.741	0.903	0.636
LK-2						0.323	0.338	0.415	0.384	0.256	0.223	0.228	0.248	0.249	0.212	0.583	0.595	0.662	0.705	0.501
NCI-H358						0.22	0.279	0.278	0.278	0.273	0.67	0.636	0.501	0.588	0.451	0.812	0.777	0.723	1.09	0.469
NCI-H522						0.678	0.67	0.7	0.727	0.638										
NCI-H1299	1	0.997	1.02	0.932	0.984						0.986	0.967	0.919	0.903	0.786	0.946	0.886	0.928	1.06	0.959
